# Experimental data from the supplement of paper PMC10307832.
# Compound: O=C1NC(=O)[C@@H](c2cn3c4c(cccc24)CCC3)[C@@H]1c1c[nH]c2ccccc12 [Tivantinib] + CS(=O)(=O)CCNCc1ccc(-c2ccc3ncnc(Nc4ccc(OCc5cccc(F)c5)c(Cl)c4)c3c2)o1 [Lapatinib] (partner 2 µM)
# Test: relative viability (nuclei count vs DMSO), 5 days (fraction); higher = more cells survive
# Details: first compound 0.01 µM
# Procedure, shortened: (§1)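 Lung cancer cell lines were pin-tool dosed in 1536-well plates on the day after seeding, with either a lone drug or a fixed anchor-drug dose plus five library-drug doses (not always all listed) in √10 steps. Nuclei were counted on 4× images after 5 days. Relative viability is the ratio of treated-well to vehicle-well nuclei counts, with each value a median of duplicate plates.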
row,Cell Line,relative viability
1,NCI-H838,1.04
2,NCI-H1651,0.866
3,EBC-1,0.205
4,NCI-H1734,1.01
5,NCI-H2009,0.917
6,EPLC-272H,1.08
7,PC-14,0.307
8,LCLC-97TM1,1.04
9,NCI-H596,1.04
10,NCI-H2228,1.12
11,EMC-BAC-2,1

# Same assay, conditions: first compound 0.03162 µM
row,Cell Line,relative viability
1,NCI-H838,0.96
2,NCI-H1651,0.691
3,EBC-1,0.248
4,NCI-H1734,0.938
5,NCI-H2009,0.595
6,EPLC-272H,0.711
7,PC-14,0.35
8,LCLC-97TM1,0.852
9,NCI-H596,1.05
10,NCI-H2228,1.08
11,EMC-BAC-2,0.852

# Same assay, conditions: first compound 0.1 µM
row,Cell Line,relative viability
1,NCI-H838,0.891
2,NCI-H1651,0.799
3,EBC-1,0.194
4,NCI-H1734,1.05
5,NCI-H2009,0.914
6,EPLC-272H,0.846
7,PC-14,0.3
8,LCLC-97TM1,1.04
9,NCI-H596,1.01
10,NCI-H2228,1.07
11,EMC-BAC-2,0.867

# Same assay, conditions: first compound 0.3162 µM
row,Cell Line,relative viability
1,NCI-H838,0.894
2,NCI-H1651,0.929
3,EBC-1,0.201
4,NCI-H1734,1.01
5,NCI-H2009,0.958
6,EPLC-272H,0.383
7,PC-14,0.325
8,LCLC-97TM1,0.889
9,NCI-H596,0.964
10,NCI-H2228,0.676
11,EMC-BAC-2,0.881

# Compound: CC1(COc2ccc3c(c2)ncn3-c2ccc3cccc(N4CCC(N)CC4)c3n2)COC1 [Crenolanib] + CS(=O)(=O)N1CCN(Cc2cc3nc(-c4cccc5[nH]ncc45)nc(N4CCOCC4)c3s2)CC1 [Pictilisib] (partner 1 µM)
# Test: as above
# Details: first compound 0.01 µM
# Procedure, shortened: as §1
row,Cell Line,relative viability
1,NCI-H838,0.492
2,NCI-H1651,0.568
3,EBC-1,0.469
4,NCI-H1734,0.436
5,NCI-H2009,0.854
6,PC-14,0.661
7,LCLC-97TM1,0.162
8,NCI-H596,0.351
9,NCI-H2228,0.372
10,EMC-BAC-2,0.552
11,ChaGo-K-1,0.419
12,NCI-H441,0.497
13,LCLC-103H,0.64

# Same assay, conditions: first compound 0.03162 µM
row,Cell Line,relative viability
1,NCI-H838,0.499
2,NCI-H1651,0.511
3,EBC-1,0.423
4,NCI-H1734,0.494
5,NCI-H2009,0.803
6,EPLC-272H,0.327
7,PC-14,0.787
8,LCLC-97TM1,0.245
9,NCI-H596,0.398
10,NCI-H2228,0.397
11,EMC-BAC-2,0.523
12,ChaGo-K-1,0.627
13,NCI-H441,0.502
14,LCLC-103H,0.58

# Same assay, conditions: first compound 0.1 µM
row,Cell Line,relative viability
1,NCI-H838,0.418
2,NCI-H1651,0.52
3,EBC-1,0.333
4,NCI-H1734,0.443
5,NCI-H2009,0.738
6,EPLC-272H,0.318
7,PC-14,0.588
8,LCLC-97TM1,0.176
9,NCI-H596,0.342
10,NCI-H2228,0.272
11,EMC-BAC-2,0.492
12,ChaGo-K-1,0.736
13,NCI-H441,0.483
14,LCLC-103H,0.596

# Same assay, conditions: first compound 0.3162 µM
row,Cell Line,relative viability
1,NCI-H838,0.418
2,NCI-H1651,0.548
3,EBC-1,0.357
4,NCI-H1734,0.477
5,NCI-H2009,0.708
6,EPLC-272H,0.255
7,PC-14,0.744
8,LCLC-97TM1,0.245
9,NCI-H596,0.353
10,NCI-H2228,0.491
11,EMC-BAC-2,0.578
12,ChaGo-K-1,0.562
13,NCI-H441,0.527
14,LCLC-103H,0.58

# Same assay, conditions: first compound 1 µM
row,Cell Line,relative viability
1,NCI-H838,0.381
2,NCI-H1651,0.502
3,EBC-1,0.422
4,NCI-H1734,0.432
5,NCI-H2009,0.532
6,EPLC-272H,0.338
7,PC-14,0.65
8,LCLC-97TM1,0.118
9,NCI-H596,0.397
10,NCI-H2228,0.361
11,EMC-BAC-2,0.495
12,ChaGo-K-1,0.7
13,NCI-H441,0.56
14,LCLC-103H,0.565

# Compound: CC1(COc2ccc3c(c2)ncn3-c2ccc3cccc(N4CCC(N)CC4)c3n2)COC1 [Crenolanib]
# Test: relative viability (nuclei count vs DMSO), 5 days (fraction); higher = more cells survive
# Details: 0.01 µM
# Procedure, shortened: (§2)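 Nuclei counted with MetaXpress define viability as the ratio of treated to vehicle wells, given as a median across plates. The lung cancer cell lines were in 1536-well plates, pinned with five √10-spaced library-drug doses and imaged at 4× after 5 days and Hoechst staining. Plates passed with control CV below 25% and at least one doubling.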
row,Cell Line,relative viability
1,NCI-H522,0.938
2,NCI-H1623,1.08
3,NCI-H838,1.03
4,NCI-H1651,0.952
5,EBC-1,1.06
6,NCI-H1734,0.947
7,NCI-H2009,1.05
8,EPLC-272H,0.905
9,PC-14,1.13
10,LCLC-97TM1,1.12
11,NCI-H596,0.912
12,NCI-H2228,0.944
13,EMC-BAC-2,1.08
14,NCI-H2342,1.07
15,ChaGo-K-1,0.933
16,SW 900,0.813
17,NCI-H1648,0.878
18,NCI-H441,1.08
19,LCLC-103H,1.01

# Same assay, conditions: 0.03162 µM
row,Cell Line,relative viability
1,NCI-H522,0.881
2,NCI-H1623,0.968
3,NCI-H838,0.975
4,NCI-H1651,0.928
5,EBC-1,0.961
6,NCI-H1734,1.02
7,NCI-H2009,1.02
8,EPLC-272H,0.893
9,PC-14,0.92
10,LCLC-97TM1,0.903
11,NCI-H596,1.04
12,NCI-H2228,1
13,NCI-H2342,0.844
14,ChaGo-K-1,0.977
15,SW 900,0.851
16,NCI-H1648,0.605
17,NCI-H441,1.11
18,LCLC-103H,1.01

# Same assay, conditions: 0.1 µM
row,Cell Line,relative viability
1,NCI-H522,1.03
2,NCI-H1623,0.876
3,NCI-H838,0.946
4,NCI-H1651,0.958
5,EBC-1,0.989
6,NCI-H1734,0.988
7,NCI-H2009,0.991
8,EPLC-272H,0.838
9,PC-14,0.997
10,LCLC-97TM1,0.93
11,NCI-H596,0.948
12,NCI-H2228,0.871
13,EMC-BAC-2,0.994
14,NCI-H2342,0.924
15,ChaGo-K-1,0.941
16,SW 900,1.06
17,NCI-H1648,0.871
18,NCI-H441,0.987
19,LCLC-103H,0.892

# Same assay, conditions: 0.3162 µM
row,Cell Line,relative viability
1,NCI-H522,0.869
2,NCI-H1623,1.01
3,NCI-H838,0.964
4,NCI-H1651,0.989
5,EBC-1,1.03
6,NCI-H1734,1.02
7,NCI-H2009,0.991
8,EPLC-272H,1.04
9,PC-14,1.02
10,LCLC-97TM1,1.05
11,NCI-H596,0.946
12,NCI-H2228,1.11
13,EMC-BAC-2,1.13
14,NCI-H2342,1.09
15,ChaGo-K-1,0.931
16,SW 900,0.86
17,NCI-H1648,0.865
18,NCI-H441,1.13
19,LCLC-103H,0.983

# Same assay, conditions: 1 µM
row,Cell Line,relative viability
1,NCI-H522,0.95
2,NCI-H1623,0.94
3,NCI-H838,0.749
4,NCI-H1651,0.932
5,EBC-1,1.03
6,NCI-H1734,0.916
7,NCI-H2009,0.89
8,EPLC-272H,1.11
9,PC-14,0.821
10,LCLC-97TM1,0.921
11,NCI-H596,0.972
12,NCI-H2228,1.1
13,EMC-BAC-2,0.84
14,NCI-H2342,0.968
15,ChaGo-K-1,0.937
16,SW 900,0.645
17,NCI-H1648,1.07
18,NCI-H441,0.928
19,LCLC-103H,0.92

# Compound: O=C1NC(=O)[C@@H](c2cn3c4c(cccc24)CCC3)[C@@H]1c1c[nH]c2ccccc12 [Tivantinib]
# Test: as above
# Details: 0.01 µM
# Procedure, shortened: as §2
row,Cell Line,relative viability
1,NCI-H522,0.943
2,NCI-H1623,0.978
3,NCI-H838,0.952
4,NCI-H1651,1.02
5,EBC-1,1.05
6,NCI-H1734,0.946
7,NCI-H2009,0.985
8,EPLC-272H,1.05
9,PC-14,0.946
10,LCLC-97TM1,1.02
11,NCI-H596,1.08
12,NCI-H2228,1.03
13,EMC-BAC-2,1.01
14,NCI-H2342,1.1
15,ChaGo-K-1,0.982
16,SW 900,1.05
17,NCI-H1648,0.818
18,NCI-H441,0.902
19,LCLC-103H,0.895

# Same assay, conditions: 0.03162 µM
row,Cell Line,relative viability
1,NCI-H522,0.71
2,NCI-H1623,0.961
3,NCI-H838,0.962
4,NCI-H1651,0.938
5,EBC-1,0.859
6,NCI-H1734,0.878
7,NCI-H2009,0.954
8,EPLC-272H,0.88
9,PC-14,0.985
10,LCLC-97TM1,0.813
11,NCI-H596,0.826
12,NCI-H2228,0.893
13,EMC-BAC-2,0.962
14,NCI-H2342,0.983
15,ChaGo-K-1,1.01
16,SW 900,0.709
17,NCI-H1648,0.863
18,NCI-H441,1.22
19,LCLC-103H,0.842

# Same assay, conditions: 0.1 µM
row,Cell Line,relative viability
1,NCI-H522,0.839
2,NCI-H1623,0.911
3,NCI-H838,0.798
4,NCI-H1651,0.874
5,EBC-1,0.933
6,NCI-H1734,1.08
7,NCI-H2009,0.967
8,EPLC-272H,0.851
9,PC-14,0.99
10,LCLC-97TM1,0.961
11,NCI-H596,0.92
12,NCI-H2228,0.931
13,EMC-BAC-2,0.997
14,NCI-H2342,0.934
15,ChaGo-K-1,0.968
16,SW 900,0.928
17,NCI-H1648,0.984
18,NCI-H441,0.9
19,LCLC-103H,0.963

# Same assay, conditions: 0.3162 µM
row,Cell Line,relative viability
1,NCI-H522,0.741
2,NCI-H838,0.932
3,NCI-H1651,0.971
4,EBC-1,0.994
5,NCI-H1734,1.01
6,NCI-H2009,1.07
7,EPLC-272H,0.455
8,PC-14,0.773
9,LCLC-97TM1,0.871
10,NCI-H596,1.01
11,NCI-H2228,0.815
12,EMC-BAC-2,0.998
13,NCI-H2342,0.815
14,ChaGo-K-1,0.909
15,SW 900,0.878
16,NCI-H1648,0.323
17,NCI-H441,0.939
18,LCLC-103H,0.951
